For assay [1], the target named is T1, Heat shock factor protein 1 (Mus musculus, UniProt P38532).
T1 sequence (P38532 whole entry): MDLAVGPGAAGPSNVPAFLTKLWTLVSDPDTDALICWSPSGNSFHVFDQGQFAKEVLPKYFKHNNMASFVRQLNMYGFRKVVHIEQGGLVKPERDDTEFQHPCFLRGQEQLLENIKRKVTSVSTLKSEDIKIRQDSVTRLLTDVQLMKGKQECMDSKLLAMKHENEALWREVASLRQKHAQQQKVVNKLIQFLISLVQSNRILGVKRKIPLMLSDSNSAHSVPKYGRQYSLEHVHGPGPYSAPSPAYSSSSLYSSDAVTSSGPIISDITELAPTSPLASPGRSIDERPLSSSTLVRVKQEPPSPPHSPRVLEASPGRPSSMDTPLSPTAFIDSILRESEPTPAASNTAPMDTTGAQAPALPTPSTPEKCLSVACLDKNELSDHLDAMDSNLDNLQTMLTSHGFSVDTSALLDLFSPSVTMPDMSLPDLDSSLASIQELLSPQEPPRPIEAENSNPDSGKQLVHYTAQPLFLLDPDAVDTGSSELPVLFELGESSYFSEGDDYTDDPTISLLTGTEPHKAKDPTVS
The assay can be described thus: decrease of HSF1-responsive luciferase luminescence – cell-based, NIH3T3, dose retest, confirmation (AID 2382).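 Further: NIH3T3 fibroblasts with HSF1-driven luciferase reporter stressed by proteasome inhibitor MG132; luminescence from HSF1-driven luciferase expression after 8 hours of MG132 stress.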 The format is functional.

Assay [2] can be described thus: viability of PTEN-deleted HCT116 cells – cell-based, HCT116 PTEN knockout, dose response (AID 1047).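 Further: HCT116 colon tumor cells with PTEN knocked out; cells exposed to compound for 60 hours before readout; potency for loss of cell viability measured by luminescence.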 The format is functional.
Assay [3] can be described thus: viability of HCT116 lacking mutant beta-catenin – cell-based, human colon tumor, dose response (AID 1045).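 Further: HCT116 colon tumor cells with beta catenin knocked out; cells exposed to compound for 60 hours.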 The format is functional.
Assay [4] deals with T2, Corticotropin-releasing factor receptor 2/Corticotropin-releasing factor-binding protein (Homo sapiens, UniProt P24387+Q13324).
T2 sequence (Q13324 whole entry): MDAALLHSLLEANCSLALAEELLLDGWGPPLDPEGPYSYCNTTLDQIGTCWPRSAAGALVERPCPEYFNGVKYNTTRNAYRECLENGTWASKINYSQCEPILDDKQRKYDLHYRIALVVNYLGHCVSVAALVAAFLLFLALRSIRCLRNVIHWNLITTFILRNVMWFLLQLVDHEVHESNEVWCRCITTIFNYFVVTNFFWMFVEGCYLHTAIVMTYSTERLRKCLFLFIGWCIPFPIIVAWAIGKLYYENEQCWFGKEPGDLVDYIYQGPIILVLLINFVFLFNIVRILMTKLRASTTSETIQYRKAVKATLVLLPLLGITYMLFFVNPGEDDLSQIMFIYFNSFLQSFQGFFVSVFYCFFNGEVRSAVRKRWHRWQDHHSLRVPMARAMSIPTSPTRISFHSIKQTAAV
T2 sequence (P24387 whole entry): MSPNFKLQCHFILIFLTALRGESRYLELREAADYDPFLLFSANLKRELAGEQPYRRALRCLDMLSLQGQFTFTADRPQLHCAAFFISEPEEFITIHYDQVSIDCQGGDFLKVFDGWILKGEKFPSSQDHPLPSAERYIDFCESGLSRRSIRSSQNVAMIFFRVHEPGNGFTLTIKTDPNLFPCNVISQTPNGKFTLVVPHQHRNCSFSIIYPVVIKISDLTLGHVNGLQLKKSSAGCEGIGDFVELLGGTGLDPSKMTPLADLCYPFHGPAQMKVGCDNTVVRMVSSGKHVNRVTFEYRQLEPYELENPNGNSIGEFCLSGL
As to the kind of experiment: activators of CRF receptor 2 with binding protein – uHTS hits, confirmation (AID 602473). Conditions: read-out: EC50_Mean. The format is functional.

Assay [5] can be described thus: Trypanosoma cruzi growth suppression in host cells – NIH3T3 host cells, beta-gal luminescence, confirmation (AID 2044).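 Further: intracellular parasites grown in NIH/3T3 mouse fibroblasts as host cells; luminescent beta-galactosidase reporter signal from transgenic T. cruzi replicating inside host cells; inhibitors lower the luminescence signal.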 Format: functional, cell-based.
Assay [6] in a line: NIH3T3 cell viability loss – ATP luminescence, mouse fibroblasts, counter-screen, dose response (AID 2010).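 Further: cells exposed to compound for about 90 hours before reading.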 Format: functional, cell-based. (In general: The purpose of a counterscreen is to sort out artefacts and off-target activity.)
Assay [7] can be described thus: Luminescence Cell-Based Dose Retest to Confirm Inhibitors of Cancer Stem Cells. [Related pubchem assays (depositor defined):AID2717, AID2721]. To be noted: Homo sapiens. Format: functional.
For assay [8], the system named is Streptococcus sp. 'group A'. As to the kind of experiment: Streptococcus pyogenes SK(-)GAS viability under kanamycin – luminescence, BacTiterGlo, confirmation, counter-screen for streptokinase expression inhibitor project, dose response (AID 1900). The format is functional, organism-based.
A further assay relates to Streptococcus. As to the kind of experiment: GAS UMAA2166 growth inhibition – luminescence, BacTiterGlo, counter-screen for streptokinase expression inhibitor project, dose response (AID 1915).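 Further: potency for reduction of bacterial viability or growth.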 The format is functional, organism-based.

Structures are written as SMILES. Activity calls are given as the source filed them. For most assays here, no stated cut-off is given here; in the data, actives have a measured EC50 and inactives only a lower limit. Some results are limits rather than exact numbers.
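Wherever AC50 is given: cells exposed to compound for roughly 70 hours or longer before luminescence read.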

In the case of `CCN1CC2([N+](=O)[O-])C=CC(=O)C([N+](=O)[O-])(C1)C2CC(=O)c1ccccc1` (stereo not drawn), in [1], the EC50 is > 195 µM (not active). `O=C(Nc1ccc(Cl)c(Cl)c1)Nc1cc(S(=O)(=O)N2CCOCC2)ccc1N1CCCC1`: the results for the EC50 in assay [2] and in [3] were 22.5 µM (active) and 20.3 µM (active), respectively.

In the case of `Nc1ccc(C23CC4CC(CC(O)(C4)C2)C3)cc1`, in [1], the EC50 is 41.2 µM (active). Same read-out and setting: the value for `CCOC(=O)Cn1c(COc2ccccc2OC)[n+](C)c2ccccc21` was > 195 µM (not active). As for `CCCNC(=O)Cn1c(=O)/c(=C/c2ccc(-c3ccc([N+](=O)[O-])cc3)o2)s/c1=C\C(=O)C(C)(C)C`, the EC50 in [4] was 2.05 µM (active). With `COc1ccc2c(c1)C=C(CN1CCN(Cc3ccccc3C)C(CCO)C1)CO2` (stereo not drawn), the EC50 is 0.391 µM (active) in [5] and > 30 µM (not active) in assay [6]. On to `Cn1c(NC(=O)c2ccccc2NC(=O)C(C)(C)C)nc2ccccc21`, for which, in assay [1], the EC50 is > 195 µM (not active). As to `O=[N+]([O-])c1cn(-c2nc(-c3ccco3)cc(C(F)(F)F)n2)cn1`, the EC50 in assay [5] is 0.723 µM (active); in assay [6], > 30 µM (not active). As for `CCN(Cc1ccccc1)C(=O)C1CCN(Cc2sccc2C)CC1`, in assay [1], the EC50 is reported as > 195 µM (not active). Regarding `CC1(C)C(=O)N(c2ccccc2)C1c1ccccc1O` (stereo not drawn), the AC50 in assay [7] was 2.95 µM (active). For the compound `CC1(c2ccc(OC(F)F)cc2)NC(=O)N(CC(=O)c2ccc3c(c2)OCO3)C1=O` (stereo not drawn), the EC50 in assay [4] is 5.4 µM (active).

For the compound `Cc1nnsc1[S+]([O-])c1ccc(Cl)c(Cl)c1` (stereo not drawn), the EC50 in assay [1] was 12.4 µM (active). Consider `COc1ccc(N2CCN(c3ncnc4scc(-c5ccc(C)cc5)c34)CC2)cc1`, for which the EC50 was 2.69 µM (active) in assay [5] and > 60 µM (not active) in assay [6]. As for `CC1CCN(CC(=O)NC2CCCCC2)CC1`, the EC50 in assay [1] is > 195 µM (not active). With `O=C(Nc1cc(C(F)(F)F)ccc1Cl)c1cccnc1`, in assay [4], the EC50 was > 53 µM (inactive).

Consider `Cc1cccc(NC(=O)c2cc(-c3cc(C)cc(C)c3O)[nH]n2)c1`, for which the AC50 in assay [7] is 2.86 µM (active).

As to `CN(C)c1ccc(CNc2ccc3c(c2)ncn3C(C)(C)C)cc1`, in [1], the EC50 was 169 µM (active).

Turning to `Cc1cccc(C)c1OCc1cc(C(=O)N2C[C@@H]3C[C@H]4C[C@@H](C3)C[C@@H]2C4)no1`, the AC50 in assay [7] was 1.27 µM (active). As to `CC(NC(=O)c1cccnc1)C(c1cccs1)N1CCOCC1` (stereo not drawn), the EC50 in [5] and in [6] was > 60 µM (not active) each time. Regarding `COc1cc(C2SCC(=O)N2CCCN(C)C)cc(OC)c1OC` (stereo not drawn), the EC50 in [5] is 0.264 µM (active); in [6], > 60 µM (not active). `COc1ccc(C(=O)C2CCCN(C3CSCCSC3)C2)c(OC)c1` (stereo not drawn): the AC50 in assay [7] is 0.939 µM (active). For `O=C(CCc1ccccc1)Nc1ncc([N+](=O)[O-])s1`, the EC50 in assay [5] was 0.951 µM (active); in [6] it was > 60 µM (not active).

For `COc1cc2c(cc1OC)C(c1cc3cccc(C)c3nc1O)N(C(=O)c1ccco1)CC2` (stereo not drawn), the EC50 was 3.44 µM (active) in [5] and 10.5 µM (active) in assay [6]. The like results for `Cc1ccc(-n2c(SCC(=O)N3c4ccccc4Sc4ccccc43)nnc2-c2ccncc2)cc1` were, in that order, 0.345 µM (active) and > 60 µM (not active).

With `CC1CC(C)CN(S(=O)(=O)c2ccc(C(=O)Nc3nnc(C4CC4)o3)cc2)C1` (stereo not drawn), the EC50 is 1.25 µM (active) in assay [8] and 5.33 µM (active) with Streptococcus. As for `CCn1c(=O)c2c3c(sc2n2cnnc12)CCC3`, in [1], the EC50 is on record as > 195 µM (not active). `CCCCCn1nc(C)c(/C=N\NC(=O)c2cc(C)oc2C)c1C`: the EC50 in assay [4] was > 53 µM (inactive).

On to `O=C(CCCNC1=NS(=O)(=O)c2ccccc21)OCC(=O)c1ccc(F)c(F)c1`, for which the EC50 in assay [4] is 7.63 µM (active). On to `O=c1cc(N2CCCCC2)c(-c2ccccc2)nn1Cc1cccc(Cl)c1`, for which, in assay [7], the AC50 was 3.6 µM (active). For `O=C(Cc1csc(Nc2nc(S)nc3ccccc23)n1)NCCCN1CCN(c2cccc(Cl)c2)CC1`, the results for the EC50 (in assay [8]; in the assay with Streptococcus) were 8.14 µM (active) and > 150 µM (not active), respectively. Take `O=C(CCCCn1c(=O)[nH]c2ccsc2c1=O)NCc1cccnc1`: in [1], the EC50 was > 195 µM (not active). For `COc1cc(OC)c(OC)cc1CN1CCCC(C(=O)c2ccccc2SC)C1` (stereo not drawn), the EC50 in [5] is 0.138 µM (active); in [6], > 60 µM (not active). On to `Cc1cc(=O)oc2cc(OCC#N)ccc12`, for which the EC50 in assay [1] is > 195 µM (not active).

As for `Cc1cc(C)nc(NC(=NC(=O)C(C)(C)C)NCCc2c[nH]c3ccccc23)n1`, the figures for the EC50 in assay [5] and in assay [6] were 2.34 µM (active) and > 60 µM (not active), respectively. Turning to `CN(C)c1nc(NCc2ccccc2)nc(SCC(=O)Nc2ccc(Cl)c(Cl)c2)n1`, the results for the EC50 in [5] and in assay [6] were 2.15 µM (active) and > 60 µM (inconclusive), respectively. For `Cc1cc(Br)c(NC(=O)CN2CC=C(c3ccccc3)CC2)c(Br)c1`, in that order: 0.255 µM (active) and > 60 µM (not active).

Take `COc1ccc(CN2CCN(Cc3ccc(C)cc3)CC2)c(OC)c1`: the figures for the EC50 in [5] and in assay [6] were 0.22 µM (active) and > 60 µM (not active), respectively. For the compound `CCOC(=O)c1c(NC(=O)c2nn(CC)cc2Br)sc2c1CCCCC2`, the AC50 in assay [7] was 1.12 µM (active). For the compound `Clc1cccc(Nc2nc(-c3cccnc3)cs2)c1`, the EC50 in [5] is 1.23 µM (active); in assay [6], > 60 µM (not active). The like results for `CCOC(=O)c1c(NC(=O)Cc2ccccc2)sc2c1CCN(C)C2` were, in that order, 0.109 µM (active) and > 60 µM (not active). For `Cc1cccc(NC(=O)CSCC(=O)Nc2cc(Cl)ccc2N2CCN(C)CC2)c1`, in that order: 2.41 µM (active) and > 60 µM (not active).

Regarding `C=CCOCCN(CCOCC=C)C1=NS(=O)(=O)c2ccccc21`, the EC50 in assay [1] is given as > 195 µM (not active).

As for `CC1CC1C(=O)N1CCN(S(=O)(=O)c2cc(C(F)(F)F)cc(C(F)(F)F)c2)CC1` (stereo not drawn), the AC50 in [7] was 2.76 µM (active). Regarding `CCc1cc2c(NCCC(=O)O)nc(C)nc2s1`, the EC50 in assay [1] is > 195 µM (not active). Consider `COc1ccc(Cl)cc1NC(=O)CN(C)C(=O)Cn1cnc2c1c(=O)n(C)c(=O)n2C`, for which, in assay [1], the EC50 is > 195 µM (not active). In the case of `O=C(N/N=C/c1cc(Br)cc(Br)c1O)c1cccc(S(=O)(=O)N2CCOCC2)c1`, the figures for the EC50 (in [8]; in the assay with Streptococcus) were 0.765 µM (active) and 3.91 µM (active), respectively.

Turning to `COc1ccc(-c2nc3ccccc3c(=O)n2-c2cccnc2)cc1`, the EC50 in assay [1] is reported as > 195 µM (not active). In the case of `CCC(O)(CC)C(=O)N/N=C/c1cc(Br)cc(Br)c1O`, the EC50 in assay [8] was 2.9 µM (active); in the assay on Streptococcus, 3.08 µM (active). Besides, the AC50 in [7] is 12.6 µM (active). Consider `Cc1cccc(C)c1N=C(S)N(Cc1ccccc1)Cc1cccnc1`, for which the EC50 was 1.46 µM (active) in assay [5] and > 60 µM (not active) in assay [6]. Regarding `COc1ccc2nc(Cl)c(C#N)cc2c1`, in assay [1], the EC50 is reported as > 195 µM (not active).

Turning to `COc1ccc(CN(C(=O)Cc2cccs2)C(C(=O)NC2CCCC2)c2ccncc2)cc1` (stereo not drawn), the EC50 in assay [5] was 2.22 µM (active); in assay [6] it was 50.8 µM (active).

As for `COc1ccccc1-n1c(S)nnc1CNC(=O)c1cccc([N+](=O)[O-])c1C`, in assay [1], the EC50 is > 195 µM (not active). For the compound `COC(=O)NC(=S)Nc1ccc(Oc2ccc(Cl)cc2Cl)c(Cl)c1`, the EC50 is 1.83 µM (active) in [5] and > 60 µM (not active) in assay [6].

For orientation: AC50 means the concentration at which the activity in the assay is half-maximal.

The record behind these values is ChEMBL document CHEMBL1201862, “PubChem BioAssay data set” (2004).
